Measured values from the NIST ThermoML archive (doi:10.1021/je200799u).
Numbers after ± are expanded uncertainties.

assay: refractive index (Na D-line) (dimensionless); details: 298.15 K; 101.33 kPa; Liquid; Standard Abbe refractometry

refractive index | Structure (SMILES)
1.4584 ± 0.0012 | CC(=O)[O-].C[NH2+]CCO [N-methyl-2-hydroxyethylammonium acetate]
1.4555 ± 0.0012 | CCCC(=O)[O-].C[NH2+]CCO [N-methyl-2-hydroxyethylammonium butanoate]
1.4563 ± 0.0012 | CCCCCC(=O)[O-].C[NH2+]CCO [N-methyl-2-hydroxyethylammonium hexanoate]
1.4196 ± 0.0007 | CCCCCCCCCCCC [dodecane]
